Measured values from patent US5869507A, “Azatyrosine analogues” (Wang; Hui-Po, priority 1997, dated 1999).
Values joined by “and” are separate entries in the source; they are usually repeats but may differ in a detail not shown here. Equal values may be shown once. Read-outs that look alike come from different tables or passages of the source.

How the values were obtained:
[1] = tested on: wild type NIH 3T3 cells; test: Growth inhibition of wild type NIH 3T3 cells (modified MTT assay, 48 h); assay type: cell-based; settings: Mus musculus, NIH3T3, mean ± SD of 3-5 experiments
Description: (§1) Inhibition on the Growth of wild type and ras-transformed NIH 3T3 cells
(§2) The compounds of formula (I) were screened on wild type and ras-transformedNIH 3T3 cells for inhibitory activity. Screening was carried out in 96-well plate and the cells, with a density of 1500-2500 cells/well, were cultured in Dulbecco's modified Eagle's medium containing 10% fetal bovine serum at 37° C. under an atmosphere of 7.5% CO2 in air. Growth curve for each cell line was established. The DMSO solution of each compound was incubated with the cell for 48 hours. Procedure of Hansen's MTT assay method was modified for estimating the cell number (Hansen, B. M., Nielson, S. E., Berg, K. J. Immunol. Methods 1989, 119, 203.). The absorption of generated formazan's blue at l570 nm was recorded with ELISA reader. The number of surviving cells was determined from a calibration curve derived by correlating the absorption to the cell number determined from a hemacytometer. At least three experiments were carried out for each compound and IC50 was calculated using sigmoidal regression (Parellada, J., Guinea, M. J. Nat. Prod., 1995, 58, 823.). SI, the selectivity of growth inhibition of each test compound, was defined as the ratio of IC50 against wild type to IC50 against ras-transformed cell lines.

[2] = tested on: ras-transformed NIH 3T3 cells; test: Growth inhibition of ras-transformed NIH 3T3 cells (modified MTT assay, 48 h); assay type: cell-based; settings: for Selective toxicity (SI, IC50 wild type/IC50 ras-transformed): IC50 wild type/IC50 ras-transformed cells; for IC50: Mus musculus, NIH3T3; for Relative activity: Ratio of the IC50 of azatyrosine to the IC50 of test compound
Description: as §1, §2

[3] = tested on: NIH 3T3 cells transformed by c-Ha-ras, c-Ki-ras, N-ras, or c-raf oncogene; settings: cited from earlier work
[4] = tested on: wild type cells; settings: cited from earlier work
[5] = tested on: mice harboring a normal c-Ha-ras gene; settings: 7,12-dimethylbenz[a]anthracene or methylnitrosourea-induced; cited from earlier work
[6] = tested on: revertant clone on nude mice; settings: some of the revertant clone; cited from earlier work
[7] = tested on: ras-transformed tumor cells; settings: relatively high concentrations up to; cited from earlier work
[8] = ras-transformed NIH 3T3, 48 hours, mean ± SD of 3-5 experiments, read-out: IC50 ras-transformed

| SMILES | IC50 [1] | Selective toxicity (SI, IC50 wild type/IC50 ras-transformed) [2] | IC50 [2, 8] | Relative activity ([2]; ras-transformed NIH 3T3) | reversion of surviving transformed cells ([3]; azatyrosine-treated transformed cells that survived) | suppression of growth of transformed NIH 3T3 cells [3] | effect on growth of wild type cells [4] | inhibition of induced carcinogenesis [5] | tumorigenicity of revertant clones [6] | concentration necessary for the activity [7] | Selective toxicity (SI, IC50 wild type/IC50 ras-transformed) ([2]; listed as compound 12) | IC50 ([2]; ras-transformed NIH 3T3, read-out: IC50) | IC50 fold lower than that of azatyrosine ([2]; ras-transformed NIH 3T3) |
| --- | --- | --- | --- | --- | --- | --- | --- | --- | --- | --- | --- | --- | --- |
| CCCNC(=O)C(Cc1ccc(OCc2ccccc2)cn1)NC(=O)OC(C)(C)C (stereo not drawn) [Compound 8, propyl 3-(5-benzyoxypyridin-2-yl)-2-t-butoxylcarbonylamino propanamide] | 989 ± 707 µM | 28.4 | 34.1 ± 0.8 µM | 217 |  |  |  |  |  |  |  |  |  |
| CC(C)(C)OC(=O)NC(Cc1ccc(OCc2ccccc2)cn1)C(=O)N1CCCCC1 (stereo not drawn) [Compound 13] | 74.8 ± 18.7 µM | 1.8 | 42.1 ± 3.9 µM | 180 |  |  |  |  |  |  |  |  |  |
| CC(C)(C)OC(=O)NC(Cc1ccc(OCc2ccccc2)cn1)C(N)=O (stereo not drawn) [Compound 7, 3-(5-benzyoxypyridin-2-yl)-2-t-butoxylcarbonylamino NH3] | 1716 ± 10.4 µM | 23.5 | 73.1 ± 41.8 µM | 103 |  |  |  |  |  |  |  |  |  |
| N[C@@H](Cc1ccc(O)cn1)C(=O)O [azatyrosine, L-b-(5-hydroxy-2-pyridyl)alanine] | 10800 ± 472 µM | 1.4 | 7550 ± 418 µM |  | reverted to an apparently normal phenotype | suppress the growth | essentially no effect | inhibits | complete loss of tumorigenicity | 1 to 2 mM |  |  |  |
| CC(C)(C)OC(=O)NC(Cc1ccc(OCc2ccccc2)cn1)C(=O)N1CCSCC1 (stereo not drawn) [Compound 15] | 154 ± 3.9 µM | 3.1 | 50.1 ± 1.04 µM | 150 |  |  |  |  |  |  |  |  |  |
| C=CCNC(=O)C(Cc1ccc(OCc2ccccc2)cn1)NC(=O)OC(C)(C)C (stereo not drawn) [Compound 9] | 213 ± 112 µM | 2.9 | 74.1 ± 15.2 µM | 102 |  |  |  |  |  |  |  |  |  |
| CC(C)(C)OC(=O)NC(Cc1ccc(OCc2ccccc2)cn1)C(=O)NC1CCCCC1 (stereo not drawn) [Compound 12, N-cyclohexyl 3-(5-benzyoxypyridin-2-yl)-2-t-butoxylcarbonylaminopropanamide] | 2280 ± 1760 µM | 138 and 138.5 | 16.1 ± 2.2 µM | 458 |  |  |  |  |  |  | 138.5 | 16.5 ± 2.2 µM | 458 fold |
| C#CCNC(=O)C(Cc1ccc(OCc2ccccc2)cn1)NC(=O)OC(C)(C)C (stereo not drawn) [Compound 10] | 410 ± 247 µM | 9.0 | 45.1 ± 1.65 µM | 165 |  |  |  |  |  |  |  |  |  |
| CC(C)(C)OC(=O)NC(Cc1ccc(OCc2ccccc2)cn1)C(=O)NC1CC1 (stereo not drawn) [Compound 11] | 1930 ± 899 µM | 18.4 | 104 ± 83.8 µM | 72 |  |  |  |  |  |  |  |  |  |
| CC(C)(C)OC(=O)NC(Cc1ccc(OCc2ccccc2)cn1)C(=O)N1CCCC1 (stereo not drawn) [Compound 14] | 148 ± 12.5 µM | 2.5 | 59.1 ± 17.8 µM | 127 |  |  |  |  |  |  |  |  |  |
